Laboratory results: US20140045824A1, “METHOD FOR PRODUCING COMPLEX CRYSTAL AND METHOD FOR SCREENING COMPLEX CRYSTAL” (priority 2011, published 2014)

Experiments:
Assay type in all cases: physicochemical
[1] = Cocrystal screening by heat melting 1-menthol (Example 2), powder X-ray diffraction and thermal analysis; parameters: key: A cocrystal was completely formed.; B: A mixture of a cocrystal and the host compound or guest compound was formed.; C: A cocrystal was not formed (a mixture of the host compound and the guest compound was formed); settings: host carbamazepine, equimolar guest, 1-menthol added, 10 hours at 80° C.
Experimental: Carbamazepine and a guest compound shown in Table 4 in an equimolar amount to carbamazepine were weighed and mixed using an agate mortar. […] Thereafter, the obtained mixed powder of carbamazepine, the guest compound, and 1-menthol was heated for 10 hours in an oven at 80° C., and the obtained solids were subjected to powder X-ray diffraction measurement and thermal analysis.

[2] = Cocrystal screening by heating method without menthol (Comparative Example 6); parameters: key: A cocrystal was completely formed.; B: A mixture of a cocrystal and the host compound or guest compound was formed.; C: A cocrystal was not formed (a mixture of the host compound and the guest compound was formed); settings: host carbamazepine, equimolar guest, no menthol, 4 hours at 80° C.
Experimental: Carbamazepine and a guest compound shown in Table 4 in an equimolar amount to carbamazepine were weighed and mixed using an agate mortar. At that time, particles having a large size to an extent that they could be distinguished through visual inspection were grinded on the agate mortar. 10 mg of this mixed powder was weighed and put into a test tube and heated for 4 hours in an oven at 80° C., and the obtained solids were subjected to powder X-ray diffraction measurement and thermal analysis.

[3] = Cocrystal screening by heating method without menthol (Comparative Example 3); parameters: key: A cocrystal was completely formed.; B: A mixture of a cocrystal and the host compound or guest compound was formed.; C: A cocrystal was not formed (a mixture of the host compound and the guest compound was formed); settings: host theophylline, equimolar guest, no menthol, 4 hours at 80° C.
Experimental: 3 mg (0.0167 mmoles) of theophylline and a guest compound shown in Table 1 in an equimolar amount (0.0167 mmoles) to theophylline were weighed and mixed using an agate mortar. At that time, particles having a large size to an extent that they could be distinguished through visual inspection were grinded on the agate mortar. 10 mg of this mixed powder was weighed and put into a test tube, followed by heating for 4 hours in an oven at 80° C. The obtained solid was subjected to powder X-ray diffraction measurement and thermal analysis.

[4] = Cocrystal screening by slurry method (Comparative Examples 4-1 to 4-6), powder X-ray diffraction; parameters: key: A cocrystal was completely formed.; B: A mixture of a cocrystal and the host compound or guest compound was formed.; C: A cocrystal was not formed (a mixture of the host compound and the guest compound was formed).; —: A residue was not obtained; settings: host carbamazepine, room temperature 7 days; for Cocrystal formation, Comparative Example 4-3: slurry in tetrahydrofuran
Experimental: 3 mg (0.0127 mmoles) of carbamazepine and a guest compound shown in Table 4 in an equimolar amount (0.0127 mmoles) to carbamazepine were weighed and put into a glass container, to which was then added 60 μL of water. These were shaken at room temperature for 7 days, and the obtained residues were subjected to powder X-ray diffraction measurement. 3 mg (0.0127 mmoles) of carbamazepine and a guest compound shown in Table 4 in an equimolar amount (0.0127 mmoles) to carbamazepine were weighed and put into a glass container, to which was then added 60 μL of ethanol. These were shaken at room temperature for 7 days, and the obtained residues were subjected to powder X-ray diffraction measurement. 3 mg (0.0127 mmoles) of carbamazepine and a guest compound shown in Table 4 in an equimolar amount (0.0127 mmoles) to carbamazepine were weighed and put into a glass container, to which was then added 60 μL of tetrahydrofuran. These were shaken at room temperature for 7 days, and the obtained residues were subjected to powder X-ray diffraction measurement. 3 mg (0.0127 mmoles) of carbamazepine and a guest compound shown in Table 4 in an equimolar amount (0.0127 mmoles) to carbamazepine were weighed and put into a glass container, to which was then added 60 μL of toluene. These were shaken at room temperature for 7 days, and the obtained residues were subjected to powder X-ray diffraction measurement. 3 mg (0.0127 mmoles) of carbamazepine and a guest compound shown in Table 4 in an equimolar amount (0.0127 mmoles) to carbamazepine were weighed and put into a glass container, to which was then added 60 μL of ethyl acetate. These were shaken at room temperature for 7 days, and the obtained residues were subjected to powder X-ray diffraction measurement. 3 mg (0.0127 mmoles) of carbamazepine and a guest compound shown in Table 4 in an equimolar amount (0.0127 mmoles) to carbamazepine were weighed and put into a glass container, to which was then added 60 μL of acetone. These were shaken at room temperature for 7 days, and the obtained residues were subjected to powder X-ray diffraction measurement.

[5] = Cocrystal formation by heating under humidified condition without menthol (Comparative Example 7); parameters: key: A cocrystal was completely formed.; B: A mixture of a cocrystal and the host compound or guest compound was formed.; C: A cocrystal was not formed (a mixture of the host compound and the guest compound was formed); settings: host theophylline, no menthol, 80° C. and 90% RH
Experimental: About 30 mg (0.167 mmoles) of theophylline and […] of L(+)-arginine were weighed and put into a test tube and mixed using an agate mortar. […] 15 mg of this mixed powder was weighed and put into a test tube and heated for 6 and 21 hours, respectively in a thermo-hygrostat at 80° C. and 90% RH, and the obtained solids were subjected to powder X-ray diffraction measurement and thermal analysis.

[6] = Cocrystal formation with 1-menthol under humidified condition (Example 3); parameters: key: A cocrystal was completely formed.; B: A mixture of a cocrystal and the host compound or guest compound was formed.; C: A cocrystal was not formed (a mixture of the host compound and the guest compound was formed); settings: host theophylline, 1-menthol added, 80° C. and 90% RH
Experimental: About 30 mg (0.167 mmoles) of theophylline and about 29 mg (0.167 mmoles) of L(+)-arginine were weighed and mixed using an agate mortar. […] 15 mg of this mixed powder was weighed and put into a test tube, to which was then added 15 mg of 1-menthol which had been grinded using an agate mortar, followed by vigorously stirring for one minute using a vortex mixer. Thereafter, the obtained mixture of theophylline, L(+)-arginine, and 1-menthol was heated for 6 and 21 hours, respectively in a thermo-hygrostat at 80° C. and 90% RH, and the obtained solids were subjected to powder X-ray diffraction measurement and thermal analysis.

| SMILES | Cocrystal formation, Example 2 [1] | Cocrystal formation, Comparative Example 6 [2] | Cocrystal formation, Comparative Example 3 [3] | Cocrystal formation, Comparative Example 4-3 [4] | Cocrystal formation, Comparative Example 4-5 ([4]; slurry in ethyl acetate) | Cocrystal formation, Comparative Example 7, Heating for 6 hours ([5]; 6 hours) | Cocrystal formation, Comparative Example 7, Heating for 21 hours ([5]; 21 hours) | Cocrystal formation, Example 3, Heating for 6 hours ([6]; 6 hours) | Cocrystal formation, Example 3, Heating for 21 hours ([6]; 21 hours) |
| --- | --- | --- | --- | --- | --- | --- | --- | --- | --- |
| NCC(=O)O [Glycine] | C | C | C | — |  |  |  |  |  |
| O=C(O)c1ccccc1 [Benzoic acid] | A | B | B | — |  |  |  |  |  |
| CC(C)C[C@H](N)C(=O)O [L-Leucine] | C | C | C | — |  |  |  |  |  |
| O=C(O)CCCC(=O)O [Glutaric acid] | A | B | B | — |  |  |  |  |  |
| O=S(=O)(O)CCS(=O)(=O)O [Ethanedisulfonic acid] | A | B | A |  |  |  |  |  |  |
| NC(=O)c1ccccc1 [Benzamide] | A | B | C |  |  |  |  |  |  |
| C/C=C/C=C/C(=O)O [Sorbic acid] | A | B | B | — |  |  |  |  |  |
| O=C(O)CC(O)(CC(=O)O)C(=O)O [Citric acid] | B | B | B | — | — |  |  |  |  |
| O=C(O)/C=C\C(=O)O [Maleic acid] | A | C | B |  |  |  |  |  |  |
| O=C1NS(=O)(=O)c2ccccc21 [Saccharin] | A | C | C | — |  |  |  |  |  |
| O=C(O)C(=O)O [Oxalic acid] | A | B | C | — |  |  |  |  |  |
| NC(=O)c1cccnc1 [Nicotinamide] | A | B | C |  |  |  |  |  |  |
| N=C(N)NCCC[C@H](N)C(=O)O [L(+)-Arginine] | C | C | C | — |  | A | A | A | A |
